Data on one compound can be found in US10487078B2, “Compositions and methods of targeting mutant K-RAS” (NantBio, Inc., priority 2015, dated 2019).

For one experiment, the target named is K-ras G12V (Homo sapiens, UniProt P01116, G12V). The experiment can be described thus: G-LISA Ras activation assay, 293H cells transfected with G12V mutant. The format is cell-based. The conditions noted are these: 1 hour treatment. How it is done:
(§1) 293H cells were seeded in 6-wells at 0.6×10^6 cells per well and transfected next day with 5 μg of Ras wild-type, or G12C, G12D or G12V mutant DNA plasmid vector using transfection reagent Lipofectamine 3000. Next day cells were treated with 3.125-50 μM of Ras compounds for 1 hour. Wild-type transfected cells were subsequently treated with 100 ng/ml EGF for 2 minutes. Cells were washed once in ice-cold PBS, lysed in complete lysis buffer on ice, and processed by G-LISA according to Cytoskeleton protocol.
In-cell selectivity of the compounds presented herein against a specific K-ras mutant form can also be tested as shown in the following exemplary experiment. 293H cells were seeded in 6-wells and transfected next day with 5 μg of Ras wild-type, or G12C, G12D or G12V mutant DNA plasmid vector. Next day cells were treated with 3.125-50 μM of Ras compounds for 1 hour. Wild-type transfected cells were subsequently treated with 100 ng/ml EGF for 2 minutes. Cells were washed once in ice-cold PBS, lysed in complete lysis buffer on ice, and processed by G-LISA according to Cytoskeleton protocol. FIG. 1 depicts exemplary results.
as §1, with “In still further experiments, the inventors tested selected compounds in a G-LISA assay to compare IC50 values for wild-type and various mutant K-Ras (G12D, G12V) using the following general protocol: 293H” for “293H”

Experiment [1] relates to Akt phosphorylation in Panc1 (G12D) cells. The experiment can be described thus: In-Cell Western Akt phosphorylation. The experiment is classed as cell-based. The conditions noted are these: EC50, one hour treatment; read-out: In-Cell Western Akt phosporylation Panc1 (G12D). Here is the method:
(§2) In-cell phosphorylation assays for Erk and Akt were performed on various of the compounds and exemplary results are shown in Table 3 below using […] and Panc10.05 cell lines for G12D K-ras mutants.
(§3) Cells are seeded in complete medium into black sided, clear-bottom 384-well microplates at 3000 cells/[…]/well. Plates are returned to 37° C. CO2 incubator for 18 hr. Drug is made as 200× in DMSO and diluted into medium to 10×. To each well is added 4 ul 10× test article or controls, and plates are returned to the incubator. Final assay DMSO concentration is 0.5%. After one hour, cells are fixed in formaldehyde, rinsed & permeabilized with triton X-100, and blocked with BSA/Goat serum blocking solution. Primary phospho-Akt and phospho-ERK antibodies are added and plates are incubated overnight at 4° C. Plates are rinsed with Tween-20 wash buffer and secondary antibody (Goat anti-rabbit, Thermofisher) is added. After 2 hours, plates are rinsed in Tween-20 wash buffer, and then PBS. Plates are imaged on the Celigo (Nexcelom) and cellular fluorescence is quantitated. Full inhibition of phospho-Akt is achieved with 1 uM BEZ235 (Sellekchem), while full inhibition of phospho-ERK is achieved with 1 uM MEK Inhibitor II Calbiochem). EC50 values are calculated using Graphpad Prism.

The subject of experiment [2] is Akt phosphorylation in Panc10.05 (G12D) cells. Kind of experiment: In-Cell Western Akt phosphorylation. The format is cell-based. Particulars: EC50, one hour treatment; read-out: In-Cell Western Akt phosporylation Panc10.05 (G12D). How it is done: as §2, §3
A further experiment addresses K-ras G12D (GDP) (Homo sapiens, UniProt P01116, G12D). Kind of experiment: SPR assay (surface plasmon resonance). Particulars: 25° C., 8% DMSO. The format is binding. The essentials:
(§4)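 His-tagged K-ras (GDP- or GTP-bound) captured on Ni-NTA surface (4000 RU); running buffer 10 mM HEPES pH 7.4, 150 mM NaCl, 0.1% Tween-20, 1 mM MgCl2, 8% DMSO; 25° C, 50 μL/min. Compounds injected by Taylor diffusion gradient, buffer blanks double-referenced, kinetic/affinity model fitting.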
(In SPR one partner is held on a chip, and binding of the other changes the refractive index at the surface.)

The target in another experiment is K-ras G12D (GTP) (Homo sapiens, UniProt P01116, G12D). Kind of experiment: SPR assay (surface plasmon resonance). The experiment is classed as binding. The conditions noted are these: 25° C., 8% DMSO. An outline of the steps: as §4
The next experiment addresses K-ras G12V (GTP) (Homo sapiens, UniProt P01116, G12V). The experiment can be described thus: SPR assay (surface plasmon resonance). The format is binding. The conditions noted are these: 25° C., 8% DMSO. The essentials: as §4
The target of the next experiment is K-ras wild-type (GDP) (Homo sapiens, UniProt P01116). Kind of experiment: SPR assay (surface plasmon resonance). The experiment is classed as binding. Particulars: 25° C., 8% DMSO. An outline of the steps: as §4
The next experiment addresses K-ras wild-type (GTP) (Homo sapiens, UniProt P01116). The experiment can be described thus: SPR assay (surface plasmon resonance). The experiment is classed as binding. Particulars: 25° C., 8% DMSO. An outline of the steps:
as §4

The structures appear in SMILES notation. Like-named read-outs stand apart in the source and are kept apart here.

Usually Kd stands for the equilibrium constant for the complex coming apart. Low values mean a tighter complex, high ones a looser complex. As for `Cc1nc(C)c(C(=O)Nc2nc(-c3ccc4[nH]c(=O)[nH]c4c3)cs2)s1` [Compound 4562], the IC50 at K-ras G12V (Table 1, G-LISA, 293H transfected, read-out: IC50 (μM) G12V) worked out at 38 µM; at K-ras G12V (Table 5, IC50, 293H transfected, read-out: G-LISA (G12V)), 38 µM. Further, the results for the EC50 in experiment [1] and in experiment [2] were 8 µM and 22 µM, respectively. Besides, the dissociation constant Kd at K-ras G12D (GDP) was 111 µM; on K-ras G12V (GTP) (value in mM), 10 mM. Moreover, at K-ras G12D (GDP), the “SPR Assay G12D (GDP) Rmax” value was “Rmax = 66.0 ± 0.9”. In addition, on K-ras G12D (GTP), the “SPR Assay G12D (GTP) Kd” value is recorded as “No binding/fit”. Besides, the “SPR Assay G12V (GTP) Rmax” value on K-ras G12V (GTP) is on record as “Rmax = 300000”. For the same compound, the “SPR Assay Wild-type (GDP) Kd” value at K-ras wild-type (GDP) was “No”. Further, on K-ras wild-type (GTP), the “SPR Assay Wild-type (GTP) Kd” value is reported as “No binding/fit”.
